Square brackets hold non-standard residues; d marks the D form. Peptide text beside a SMILES is read from it. Trp(6-Cl) = N[C@@H](Cc1c[nH]c2cc(Cl)ccc12)C(=O)O; Pmp = N[C@@H](Cc1ccc(CP(=O)(O)O)cc1)C(=O)O; Ac3c = NC1(C(=O)O)CC1; Aib = CC(C)(N)C(=O)O
Assay: In vitro inhibition of binding towards of human wild-type p53 to GST-hdm2

Row | Compound | IC50
1 | CSCC[C@H](NC(=O)[C@H](Cc1ccccc1)NC(C)=O)C(=O)NC(C)(C)C(=O)N[C@@H](Cc1ccc(CP(=O)(O)O)cc1)C(=O)N[C@@H](C)C(=O)N[C@@H](CCC(=O)O)C(=O)NC1(C(=O)N[C@@H](CC(C)C)C(N)=O)CC1 (Ac-FM[Aib][Pmp]AE[Ac3c]L-NH2) | > 2000 nM
2 | CSCC[C@H](NC(=O)[C@H](Cc1ccccc1)NC(C)=O)C(=O)NC(C)(C)C(=O)N[C@@H](Cc1ccc(CP(=O)(O)O)cc1)C(=O)N[C@@H](Cc1c[nH]c2cc(Cl)ccc12)C(=O)N[C@@H](CCC(=O)O)C(=O)NC1(C(=O)N[C@@H](CC(C)C)C(N)=O)CC1 (Ac-FM[Aib][Pmp][Trp(6-Cl)]E[Ac3c]L-NH2) | 5 nM

— ChEMBL document CHEMBL1133912, “Coupling of the antennapedia third helix to a potent antagonist of the p53/hdm2 protein-protein interaction” (Bioorg Med Chem Lett, 2001)
